Source: PubChem BioAssay (NCI)
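All cell lines were grown in 96-well plates and treated with compound for 48 hours. GI50 = concentration required for 50% inhibition of growth. TGI is the concentration that stops growth completely.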

How the values were obtained:
Test in all cases: NCI tumour cell line growth inhibition, 48 h
[1] = tested on: A498 renal
[2] = tested on: A549 NSCLC
[3] = tested on: ACHN renal
[4] = tested on: CAKI-1 renal
[5] = tested on: CCRF-CEM leukemia
[6] = tested on: COLO 205 colon
[7] = tested on: DU-145 prostate
[8] = tested on: EKVX NSCLC
[9] = tested on: HCC-2998 colon
[10] = tested on: HCT-116 colon
[11] = tested on: HCT-15 colon
[12] = tested on: HL-60(TB) leukemia
[13] = tested on: HOP-62 NSCLC
[14] = tested on: HOP-92 NSCLC
[15] = tested on: HS 578T breast
[16] = tested on: HT29 colon
[17] = tested on: IGROV1 ovarian
[18] = tested on: K-562 leukemia
[19] = tested on: KM12 colon
[20] = tested on: LOX IMVI melanoma
[21] = tested on: M14 melanoma
[22] = tested on: MALME-3M melanoma
[23] = tested on: MCF7 breast
[24] = tested on: MDA-MB-231 breast
[25] = tested on: MDA-MB-435
[26] = tested on: MOLT-4 leukemia
[27] = tested on: NCI-H226 lung
[28] = tested on: NCI-H23 lung
[29] = tested on: NCI-H460 lung
[30] = tested on: NCI-H522 lung
[31] = tested on: NCI/ADR-RES ovarian
[32] = tested on: OVCAR-3 ovarian
[33] = tested on: OVCAR-4 ovarian
[34] = tested on: OVCAR-5 ovarian
[35] = tested on: OVCAR-8 ovarian
[36] = tested on: PC-3 prostate
[37] = tested on: RPMI-8226 leukemia
[38] = tested on: RXF 393 renal
[39] = tested on: SF-268 CNS
[40] = tested on: SF-295 CNS
[41] = tested on: SF-539 CNS
[42] = tested on: SK-MEL-2 melanoma
[43] = tested on: SK-MEL-28 melanoma
[44] = tested on: SK-MEL-5 melanoma
[45] = tested on: SN12C renal
[46] = tested on: SNB-19 CNS
[47] = tested on: SNB-75 CNS
[48] = tested on: SR leukemia
[49] = tested on: SW-620 colon
[50] = tested on: T-47D breast
[51] = tested on: TK-10 renal
[52] = tested on: U251 CNS
[53] = tested on: UACC-257 melanoma
[54] = tested on: UACC-62 melanoma
[55] = tested on: UO-31 renal

COc1ccc(-c2nn(-c3ccc(NC(=O)Nc4ccc(Cl)c(Cl)c4)cc3)cc2-c2ccncc2)cc1Cl
GI50 [1]: 1.75 µM
TGI [1]: 8.04 µM
GI50 [2]: 1.56 µM
TGI [2]: > 100 µM
GI50 [3]: 2.27 µM
TGI [3]: > 100 µM
GI50 [4]: 1.95 µM
TGI [4]: 15.4 µM
GI50 [5]: 2.09 µM
TGI [5]: > 100 µM
GI50 [6]: 2.19 µM
TGI [6]: 5.27 µM
GI50 [7]: 3.97 µM
TGI [7]: > 100 µM
GI50 [8]: 2.18 µM
TGI [8]: > 100 µM
GI50 [9]: 2.78 µM
TGI [9]: > 100 µM
GI50 [10]: 1.65 µM
TGI [10]: 11.7 µM
GI50 [11]: 1.7 µM
TGI [11]: > 100 µM
GI50 [12]: 2.21 µM
TGI [12]: 6.6 µM
GI50 [13]: 3.73 µM
TGI [13]: > 100 µM
GI50 [14]: 1.82 µM
TGI [14]: 5.72 µM
GI50 [15]: 1.42 µM
TGI [15]: 7.63 µM
GI50 [16]: 2.55 µM
TGI [16]: > 100 µM
GI50 [17]: 3.44 µM
TGI [17]: > 100 µM
GI50 [18]: 1.43 µM
TGI [18]: > 100 µM
GI50 [19]: 2.13 µM
TGI [19]: > 100 µM
GI50 [20]: 2.24 µM
TGI [20]: 10.4 µM
GI50 [21]: 1.79 µM
TGI [21]: 5.04 µM
GI50 [22]: 2.47 µM
TGI [22]: 8.47 µM
GI50 [23]: 2.37 µM
TGI [23]: 9.34 µM
GI50 [24]: 1.5 µM
TGI [24]: 4.33 µM
GI50 [25]: 2.3 µM
TGI [25]: > 100 µM
GI50 [26]: 1.89 µM
TGI [26]: > 100 µM
GI50 [27]: 3.49 µM
TGI [27]: > 100 µM
GI50 [28]: 2.22 µM
TGI [28]: > 100 µM
GI50 [29]: 2.14 µM
TGI [29]: 8.54 µM
GI50 [30]: 1.39 µM
TGI [30]: 5.66 µM
GI50 [31]: 2.06 µM
TGI [31]: > 100 µM
GI50 [32]: 2.64 µM
TGI [32]: > 100 µM
GI50 [33]: 1.79 µM
TGI [33]: > 100 µM
GI50 [34]: 2.8 µM
TGI [34]: > 100 µM
GI50 [35]: 2.72 µM
TGI [35]: > 100 µM
GI50 [36]: 1.29 µM
TGI [36]: 14.4 µM
GI50 [37]: 0.54 µM
TGI [37]: 3.18 µM
GI50 [38]: 0.862 µM
TGI [38]: 2.89 µM
GI50 [39]: 4.19 µM
TGI [39]: > 100 µM
GI50 [40]: 2.21 µM
TGI [40]: > 100 µM
GI50 [41]: 2.82 µM
TGI [41]: > 100 µM
GI50 [42]: 2.02 µM
TGI [42]: 4.76 µM
GI50 [43]: 2.7 µM
TGI [43]: 68.2 µM
GI50 [44]: 2.26 µM
TGI [44]: 5.96 µM
GI50 [45]: 2.6 µM
TGI [45]: > 100 µM
GI50 [46]: 3.36 µM
TGI [46]: > 100 µM
GI50 [47]: 1.17 µM
TGI [47]: > 100 µM
GI50 [48]: 2.65 µM
TGI [48]: 35.6 µM
GI50 [49]: 3.31 µM
TGI [49]: > 100 µM
GI50 [50]: 3.24 µM
TGI [50]: > 100 µM
GI50 [51]: 2.04 µM
TGI [51]: > 100 µM
GI50 [52]: 1.36 µM
TGI [52]: > 100 µM
GI50 [53]: 3.14 µM
TGI [53]: 11.6 µM
GI50 [54]: 2.1 µM
TGI [54]: 7.33 µM
GI50 [55]: 1.51 µM
TGI [55]: > 100 µM
